*1 amine or outer side, *2 acyl side, *3 side chain or, on linkers, in order; H or OH if unused. Where a SMILES comes first, the peptide text is derived from it. Bridges are numbered along the chain shown (N, C = ends). [ ]: non-standard residue; d: D form. The star is where a group is joined. NMePhe(3-Cl) = CN[C@@H](Cc1cccc(Cl)c1)C(=O)O; NMehPhe = CN[C@@H](CCc1ccccc1)C(=O)O; X6 = O=C([C@H](CCCCO)N[*:1])[*:2]; NMeF = CN[C@@H](Cc1ccccc1)C(=O)O; NMeGABA = CN(CCCC(=O)[*:2])[*:1]; NMeL = CN[C@@H](CC(C)C)C(=O)O; NMeV = CN[C@H](C(=O)O)C(C)C; NMeAbu = CC[C@H](NC)C(=O)O; NMeA = CN[C@@H](C)C(=O)O; Piperidide = C1CCN(*)CC1; dAbu = CC[C@@H](N)C(=O)O; Isopentyl = CC(C)CC*; NPrGly = CCCNCC(=O)O; Ethyl(2-OH) = OCC*; Sar = CNCC(=O)O
Assay: in vitro
Conditions: human, Caco-2, Caco-2 (cm/sec)

Structure (SMILES)	Papp [×10⁻⁶ cm/s]
CCCN1CC(=O)N(C)[C@@H](CC(C)C)C(=O)N[C@@H](COCCC(C)C)C(=O)N(C)[C@@H](Cc2ccccc2)C(=O)N(C)[C@@H](CC(C)C)C(=O)N[C@H](C(=O)N2CCCCC2)CC(=O)N[C@H](C(C)C)C(=O)N(C)[C@@H](CCc2ccccc2)C(=O)N[C@@H](COCCO)C(=O)N(C)[C@@H](CC(C)C)C(=O)N[C@@H]([C@@H](C)O)C1=O [Compound A01] ([dV][NMehPhe]S(Ethyl(2-OH))[NMeL]T[NPrGly][NMeL]S(Isopentyl)[NMeF][NMeL]D-Piperidide; lactam N-11)	0.6
CC(C)C[C@@H]1NC(=O)[C@H](CCc2ccccc2)N(C)C(=O)[C@@H](C(C)C)NC(=O)C[C@@H](C(=O)N2CCCCC2)NC(=O)[C@H](CC(C)C)N(C)C(=O)[C@H](Cc2cccc(Cl)c2)N(C)C(=O)[C@H](COCCO)NC(=O)[C@H](CC(C)C)N(C)C(=O)CN(C)C(=O)[C@H]([C@@H](C)O)NC(=O)[C@H](CC(C)C)N(C)C1=O [Compound A02] ([dV][NMehPhe]L[NMeL]T[Sar][NMeL]S(Ethyl(2-OH))[NMePhe(3-Cl)][NMeL]D-Piperidide; lactam N-11)	0.45
CC(C)C[C@@H]1NC(=O)[C@H](CCc2ccccc2)N(C)C(=O)[C@H](CCc2ccccc2)N(C)C(=O)[C@H](COCCO)NC(=O)[C@H](CC(C)C)N(C)C(=O)CCCN(C)C(=O)C[C@@H](C(=O)N2CCCCC2)NC(=O)[C@H](CC(C)C)N(C)C(=O)[C@H](CC(C)C)N(C)C(=O)[C@H]([C@@H](C)O)NC(=O)[C@H](CC(C)C)N(C)C1=O [Compound A03] ([NMeGABA][NMeL]S(Ethyl(2-OH))[NMehPhe][NMehPhe]L[NMeL]T[NMeL][NMeL]D-Piperidide; lactam N-11)	0.32
CC[C@H](C)[C@@H]1NC(=O)[C@H](CC(C)C)N(C)C(=O)CCCN(C)C(=O)C[C@@H](C(=O)N2CCCCC2)NC(=O)[C@H](CC(C)C)N(C)C(=O)[C@H](CC(C)C)N(C)C(=O)[C@H]([C@@H](C)O)NC(=O)[C@H](CC(C)C)N(C)C(=O)[C@H](COCCO)NC(=O)[C@H](CCc2ccccc2)N(C)C(=O)[C@H](CCc2ccccc2)N(C)C1=O [Compound A04] ([NMeGABA][NMeL]I[NMehPhe][NMehPhe]S(Ethyl(2-OH))[NMeL]T[NMeL][NMeL]D-Piperidide; lactam N-11)	0.41
CCCN1CC(=O)N(C)[C@@H](CC(C)C)C(=O)N[C@H](C(=O)N2CCCCC2)CC(=O)N(C)[C@@H](C)C(=O)N[C@@H](COCCO)C(=O)N(C)[C@@H](CC(C)C)C(=O)N(C)[C@@H](Cc2cccc(Cl)c2)C(=O)N[C@@H](CC(C)C)C(=O)N(C)[C@@H](CCc2ccccc2)C(=O)N(C)[C@@H](CC(C)C)C(=O)N[C@@H]([C@@H](C)O)C1=O [Compound A05] ([NMeA]S(Ethyl(2-OH))[NMeL][NMePhe(3-Cl)]L[NMehPhe][NMeL]T[NPrGly][NMeL]D-Piperidide; lactam N-11)	0.9
CC(C)C[C@@H]1NC(=O)[C@H](C(C)C)N(C)C(=O)C[C@@H](C(=O)N2CCCCC2)NC(=O)[C@H](CC(C)C)N(C)C(=O)CN(C)C(=O)[C@H]([C@@H](C)O)NC(=O)[C@H](CC(C)C)N(C)C(=O)[C@H](CCc2ccccc2)N(C)C(=O)[C@H](COCCO)NC(=O)[C@H](Cc2ccccc2)N(C)C(=O)[C@H](CC(C)C)N(C)C1=O [Compound A06] ([NMeV]L[NMeL][NMeF]S(Ethyl(2-OH))[NMehPhe][NMeL]T[Sar][NMeL]D-Piperidide; lactam N-11)	0.53
CCCN1CC(=O)N(C)[C@@H](CCc2ccccc2)C(=O)N(C)[C@@H](CC(C)C)C(=O)N[C@@H](COCCC(C)C)C(=O)N(C)[C@@H](CC(C)C)C(=O)N[C@H](C(=O)N2CCCCC2)CC(=O)N(C)CC(=O)N(C)[C@@H](Cc2cccc(Cl)c2)C(=O)N[C@@H](COCCO)C(=O)N(C)[C@@H](CC(C)C)C(=O)N[C@@H]([C@@H](C)O)C1=O [Compound A07] ([Sar][NMePhe(3-Cl)]S(Ethyl(2-OH))[NMeL]T[NPrGly][NMehPhe][NMeL]S(Isopentyl)[NMeL]D-Piperidide; lactam N-11)	0.53
CCCN1CC(=O)N(C)[C@@H](Cc2cccc(Cl)c2)C(=O)N(C)[C@@H](CC(C)C)C(=O)N[C@@H](COCCO)C(=O)N(C)[C@@H](CC(C)C)C(=O)N[C@H](C(=O)N2CCCCC2)CC(=O)N(C)CC(=O)N(C)[C@@H](CCc2ccccc2)C(=O)N[C@@H]([C@@H](C)CC)C(=O)N(C)[C@@H](CC(C)C)C(=O)N[C@@H]([C@@H](C)O)C1=O [Compound A08] ([Sar][NMehPhe]I[NMeL]T[NPrGly][NMePhe(3-Cl)][NMeL]S(Ethyl(2-OH))[NMeL]D-Piperidide; lactam N-11)	0.32
CC(C)C[C@@H]1NC(=O)[C@H](Cc2cccc(Cl)c2)N(C)C(=O)[C@H](CC(C)C)N(C)C(=O)[C@H](COCCO)NC(=O)[C@H](C(C)C)N(C)C(=O)C[C@@H](C(=O)N2CCCCC2)NC(=O)[C@H](CC(C)C)N(C)C(=O)CN(C)C(=O)[C@H]([C@@H](C)O)NC(=O)[C@H](CC(C)C)N(C)C(=O)[C@H](CCc2ccccc2)N(C)C1=O [Compound A09] ([NMeV]S(Ethyl(2-OH))[NMeL][NMePhe(3-Cl)]L[NMehPhe][NMeL]T[Sar][NMeL]D-Piperidide; lactam N-11)	0.72
CCCN1CC(=O)N(C)[C@@H](CC(C)C)C(=O)N[C@@H](COCCC(C)C)C(=O)N(C)[C@@H](Cc2ccccc2)C(=O)N(C)[C@@H](CC(C)C)C(=O)N[C@H](C(=O)N2CCCCC2)CC(=O)N[C@H](CC)C(=O)N(C)[C@@H](CCc2ccccc2)C(=O)N[C@@H](CCCCO)C(=O)N(C)[C@@H](CC(C)C)C(=O)N[C@@H]([C@@H](C)O)C1=O [Compound B01] ([dAbu][NMehPhe][X6][NMeL]T[NPrGly][NMeL]S(Isopentyl)[NMeF][NMeL]D-Piperidide; lactam N-11)	< 0.11
CC[C@H]1NC(=O)C[C@@H](C(=O)N2CCCCC2)NC(=O)[C@H](CC(C)C)N(C)C(=O)[C@H](Cc2cccc(Cl)c2)N(C)C(=O)[C@H](CCCCO)NC(=O)[C@H](CC(C)C)N(C)C(=O)CN(C)C(=O)[C@H]([C@@H](C)O)NC(=O)[C@H](CC(C)C)N(C)C(=O)[C@H](CC(C)C)NC(=O)[C@H](CCc2ccccc2)N(C)C1=O [Compound B02] ([dAbu][NMehPhe]L[NMeL]T[Sar][NMeL][X6][NMePhe(3-Cl)][NMeL]D-Piperidide; lactam N-11)	0.15
CC(C)C[C@@H]1NC(=O)[C@H](CCc2ccccc2)N(C)C(=O)[C@H](CCc2ccccc2)N(C)C(=O)[C@H](CCCCO)NC(=O)[C@H](C(C)C)N(C)C(=O)CCCN(C)C(=O)C[C@@H](C(=O)N2CCCCC2)NC(=O)[C@H](CC(C)C)N(C)C(=O)[C@H](CC(C)C)N(C)C(=O)[C@H]([C@@H](C)O)NC(=O)[C@H](CC(C)C)N(C)C1=O [Compound B03] ([NMeGABA][NMeV][X6][NMehPhe][NMehPhe]L[NMeL]T[NMeL][NMeL]D-Piperidide; lactam N-11)	0.27
CC(C)C[C@H]1C(=O)N[C@@H](C(C)C)C(=O)N(C)[C@@H](CCc2ccccc2)C(=O)N(C)[C@@H](CCc2ccccc2)C(=O)N[C@@H](CCCCO)C(=O)N(C)[C@@H](CC(C)C)C(=O)N[C@@H]([C@@H](C)O)C(=O)N(C)[C@@H](CC(C)C)C(=O)N(C)[C@@H](CC(C)C)C(=O)N[C@H](C(=O)N2CCCCC2)CC(=O)N(C)CCCC(=O)N1C [Compound B04] ([NMeGABA][NMeL]V[NMehPhe][NMehPhe][X6][NMeL]T[NMeL][NMeL]D-Piperidide; lactam N-11)	0.07
CCCN1CC(=O)N(C)[C@@H](CC(C)C)C(=O)N[C@H](C(=O)N2CCCCC2)CC(=O)N(C)[C@@H](C)C(=O)N[C@@H](CCCCO)C(=O)N(C)[C@@H](CC(C)C)C(=O)N(C)[C@@H](Cc2cccc(Cl)c2)C(=O)N[C@@H](C(C)C)C(=O)N(C)[C@@H](CCc2ccccc2)C(=O)N(C)[C@@H](CC(C)C)C(=O)N[C@@H]([C@@H](C)O)C1=O [Compound B05] ([NMeA][X6][NMeL][NMePhe(3-Cl)]V[NMehPhe][NMeL]T[NPrGly][NMeL]D-Piperidide; lactam N-11)	0.26
CC[C@H]1C(=O)N[C@@H](CC(C)C)C(=O)N(C)[C@@H](CC(C)C)C(=O)N(C)[C@@H](Cc2ccccc2)C(=O)N[C@@H](CCCCO)C(=O)N(C)[C@@H](CCc2ccccc2)C(=O)N(C)[C@@H](CC(C)C)C(=O)N[C@@H]([C@@H](C)O)C(=O)N(C)CC(=O)N(C)[C@@H](CC(C)C)C(=O)N[C@H](C(=O)N2CCCCC2)CC(=O)N1C [Compound B06] ([NMeAbu]L[NMeL][NMeF][X6][NMehPhe][NMeL]T[Sar][NMeL]D-Piperidide; lactam N-11)	0.39
CCCN1CC(=O)N(C)[C@@H](CCc2ccccc2)C(=O)N(C)[C@@H](CC(C)C)C(=O)N[C@@H](COCCC(C)C)C(=O)N(C)[C@@H](CC(C)C)C(=O)N[C@H](C(=O)N2CCCCC2)CC(=O)N(C)CC(=O)N(C)[C@@H](Cc2cccc(Cl)c2)C(=O)N[C@@H](CCCCO)C(=O)N(C)[C@@H](C(C)C)C(=O)N[C@@H]([C@@H](C)O)C1=O [Compound B07] ([Sar][NMePhe(3-Cl)][X6][NMeV]T[NPrGly][NMehPhe][NMeL]S(Isopentyl)[NMeL]D-Piperidide; lactam N-11)	0.21
CCCN1CC(=O)N(C)[C@@H](Cc2cccc(Cl)c2)C(=O)N(C)[C@@H](CC(C)C)C(=O)N[C@@H](CCCCO)C(=O)N(C)[C@@H](CC(C)C)C(=O)N[C@H](C(=O)N2CCCCC2)CC(=O)N(C)CC(=O)N(C)[C@@H](CCc2ccccc2)C(=O)N[C@@H](C(C)C)C(=O)N(C)[C@@H](CC(C)C)C(=O)N[C@@H]([C@@H](C)O)C1=O [Compound B08] ([Sar][NMehPhe]V[NMeL]T[NPrGly][NMePhe(3-Cl)][NMeL][X6][NMeL]D-Piperidide; lactam N-11)	0.15
CC[C@H]1C(=O)N[C@@H](CCCCO)C(=O)N(C)[C@@H](CC(C)C)C(=O)N(C)[C@@H](Cc2cccc(Cl)c2)C(=O)N[C@@H](CC(C)C)C(=O)N(C)[C@@H](CCc2ccccc2)C(=O)N(C)[C@@H](CC(C)C)C(=O)N[C@@H]([C@@H](C)O)C(=O)N(C)CC(=O)N(C)[C@@H](CC(C)C)C(=O)N[C@H](C(=O)N2CCCCC2)CC(=O)N1C [Compound B09] ([NMeAbu][X6][NMeL][NMePhe(3-Cl)]L[NMehPhe][NMeL]T[Sar][NMeL]D-Piperidide; lactam N-11)	0.31

Reference: patent US20230096766A1, “AMINO ACID HAVING FUNCTIONAL GROUP CAPABLE OF INTERMOLECULAR HYDROGEN BONDING, PEPTIDE COMPOUND CONTAINING SAME AND METHOD FOR PRODUCTION THEREOF” (Chugai Seiyaku Kabushiki Kaisha, priority 2018, published 2023)
